Our source for the TGI and GI50 values is PubChem BioAssay (NCI).

Experiment in all cases: DTP human tumour cell line panel, 48 h
Assay [1] deals with HT29 colon.
In assay [2] the test system is MCF7 breast.
Assay [3] relates to MDA-MB-231 breast.
Assay [4] has as its system MOLT-4 leukemia.
Assay [5] concerns NCI/ADR-RES ovarian.
In assay [6] the test system is SF-295 CNS.
The test system of assay [7] is SN12C renal.
Assay [8] deals with SW-620 colon.
The test system of assay [9] is UO-31 renal.
For assay [10], the system named is HL-60(TB) leukemia.
Assay [11] relates to DU-145 prostate.

“And” between values parts separate entries of the source, which are not always exact repeats. Identical values can stand only once.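 Five compound concentrations were applied to cells in 96-well plates for 48 hours; endpoints were derived by simple linear interpolation of the resulting dose-response curve. Here, GI50 denotes the concentration required for 50% inhibition of growth. TGI denotes the concentration required for complete inhibition of growth.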

By TGI is commonly meant the concentration at which net growth stops. The GI50 is the concentration at which growth is held to half of that of the control.

Regarding `Cn1c(=O)c2c(no[n+]2[O-])c2ccccc21`, the TGI is 37.2 µM in assay [1]; > 100 µM in assay [2]; 48 µM in assay [3]; 44.4 µM in assay [4]; 47.3 µM in assay [5]; 61.1 µM in assay [6]. The values for the TGI in assay [7], in [8] and in assay [9] were 59.8 µM, 41.2 µM and 55 µM, respectively.
Turning to `CSc1nncc2[nH]c(C)nc12`, the TGI in assay [10], in assay [1], in [2], in assay [3], in assay [4] and in assay [5] was > 100 µM each time. Further, the TGI in assay [6], in assay [7], in assay [8] and in [9] was > 100 µM in each case.
Regarding `CSc1ncnc2c1cnn2CCCCO`, the TGI in [11], in [10], in [1], in [2], in assay [3] and in assay [4] was > 100 µM each time. Also, the TGI in [6], in assay [7], in assay [8] and in assay [9] was > 100 µM throughout.
For the compound `CC1(C)OC2C(O)CN3CCS[C@H]3C2O1` (some centres not stated), the total growth inhibition concentration (TGI) in assay [11], in assay [10], in assay [1], in assay [3], in [4] and in [5] was > 100 µM throughout. In addition, the TGI in assay [6], in [8] and in [9] was > 100 µM each time.
On to `COc1ccc(-c2c(C#N)c(O)n(NS(=O)(=O)c3ccc(C)cc3)c(=O)c2C#N)cc1`, for which the TGI is > 100 µM in [10]; > 100 µM in [1]; > 100 µM in assay [2]; > 100 µM in [3]; 66.1 µM in assay [4]; > 100 µM in [5]. In addition, the TGI in [6], in assay [7] and in assay [8] was > 100 µM throughout.
For the compound `CC(C)=CCc1c(O)ccc2ccc(=O)oc12`, the TGI in [10] was > 80.6 µM; in assay [1], > 100 µM; in [2], > 100 µM; in [4], 84.2 µM; in [5] it was > 31.6 µM; in assay [6], > 100 µM. Besides, the TGI in assay [7] is > 100 µM; in assay [8] it was > 100 µM; in assay [9], > 95.1 µM.
Regarding `O=c1c2c(-c3ccccc3)onc2n(-c2ccccc2)c(=O)n1-c1ccccc1`, the TGI in [1] was 45.3 µM; in assay [2], > 100 µM; in assay [3], > 100 µM; in assay [4] it was > 100 µM; in assay [5], 43.2 µM; in assay [6] it was > 100 µM. Besides, the TGI in assay [7] is > 100 µM; in [8], > 100 µM; in [9], 30.4 µM.
Consider `NC12Oc3cc(O)cc(O)c3C1(c1ccc(Cl)cc1)c1c(O)cc(O)cc1O2` (configuration not stated), for which the TGI in assay [11], in assay [10], in [1], in assay [2], in assay [4] and in assay [5] was > 100 µM throughout. Also, the TGI in [6], in assay [7], in [8] and in assay [9] was > 100 µM in each case.
Take `COc1cccc2c1C(=O)c1c(O)c3c(c(O)c1C2=O)C[C@@](O)(C(=O)CO)C[C@@H]3OC1CC(N)C(OC)C(C)O1` (some centres not stated): the TGI in assay [11] is > 100 µM; in [10], 0.388 µM; in [1], 1.66 µM; in [2], 0.41 µM; in [3], 7.01 µM; in [4], 0.0517 µM. Also, the TGI in [6] was found to be 1.98 µM; in assay [7], 0.644 µM; in assay [8], 4.05 µM; in [9] it was 1.41 µM.
Consider `COc1cc(/C=C/C(=O)O)ccc1C(=O)OCc1ccccc1`, for which the TGI in [10], in assay [1], in assay [2], in [4], in assay [5] and in assay [6] was > 100 µM throughout. Moreover, the TGI in assay [7], in [8] and in [9] was > 100 µM in each case.
As for `CCN(CC)C(=S)SS(=O)(=O)c1ccc(F)cc1`, the TGI in [11] was > 100 µM; in assay [1] it was 53.9 µM; in [3] it was > 100 µM; in assay [5], > 100 µM; in assay [6] it was > 100 µM; in assay [7] it was > 100 µM. Further, the TGI is 53.7 µM in assay [8] and 72.5 µM in assay [9].
In the case of `CC12CCC3C(CCC4=CC(O)CCC43C=O)C1(O)CCC2c1ccc(=O)oc1` (configuration not stated), the GI50 is 0.05 µM in [10]; 0.0667 µM in assay [1]; 0.00403 µM in assay [2]; 0.0129 µM in assay [4]; 0.05 µM in [5]; 0.05 µM in assay [6]. In addition, the GI50 in [7] was 0.05 µM; in assay [8] it was 0.00909 µM; in assay [9], 0.05 µM. Also, the TGI in assay [2] is 0.0209 µM and 0.0721 µM; in assay [4], 0.0401 µM; in assay [5] it was 0.196 µM and 0.0533 µM; in [6], 0.0466 µM and 0.107 µM; in assay [8], 0.0967 µM and 0.062 µM; in assay [9] it was 0.127 µM and 0.057 µM.
`CN(CCN(C)C(=S)NN)C(=S)NN`: the TGI in assay [11], in assay [10], in assay [1], in assay [3], in assay [4] and in assay [6] was > 100 µM each time. Moreover, the TGI in assay [7], in [8] and in assay [9] was > 100 µM throughout.
Consider `Cc1ccsc1/C=N/Nc1ccc2ccccc2n1`, for which the TGI was > 100 µM in assay [11]; 40.1 µM in assay [10]; > 100 µM in assay [1]; 32.3 µM in assay [2]; > 100 µM in [4]; > 100 µM in assay [5]. The TGI was 31 µM in assay [6], > 100 µM in [7], > 100 µM in assay [8] and > 100 µM in assay [9].
For the compound `CCCC(O)C(NC(=O)CCl)C(=O)O` (configuration not stated), the TGI in assay [10], in assay [1], in [2], in [4], in [5] and in assay [6] was > 100 µM in each case. For the same compound, the TGI in assay [7], in assay [8] and in assay [9] was > 100 µM throughout.
With `CCOP(=O)(O)C(C)(C)NC`, the TGI in assay [11], in assay [10], in [1], in assay [3], in assay [4] and in assay [5] was > 100 µM each time. Moreover, the TGI in assay [6], in [7], in [8] and in assay [9] was > 100 µM in each case.
For `Cc1ccc(C(=O)N/N=C(\N=Nc2ccccc2[N+](=O)[O-])c2ccc(N(C)C)cc2)cc1`, the TGI in [10], in [1], in assay [2], in assay [3], in [4] and in [5] was > 100 µM in each case. Also, the TGI in assay [6], in [7], in assay [8] and in assay [9] was > 100 µM in each case.
As to `CC(C)(C)[Si](C)(C)OC1/C(=C/C#N)C(n2ccc(=O)[nH]c2=O)OC1CO` (configuration not stated), the TGI in [11], in [1], in assay [2], in [3], in assay [4] and in assay [5] was > 100 µM each time. For the same compound, the TGI in [6], in assay [8] and in assay [9] was > 100 µM throughout.
For the compound `CCc1nc2ccc(N=NN(C)C)cc2[nH]1`, the TGI in assay [11], in assay [1], in assay [3], in assay [4], in assay [5] and in assay [7] was > 100 µM in each case. For the same compound, the TGI in [8] and in [9] was > 100 µM throughout.
As to `O=C(NC(CO)Cc1ccc(Oc2cc(CC(CO)NC(=O)OCc3ccccc3)ccc2OC(=O)OCc2ccccc2)cc1)OCc1ccccc1` (configuration not stated), the TGI in assay [11] is 51.3 µM; in [10], 41.7 µM; in assay [1], > 100 µM; in assay [2], 26.8 µM; in assay [4], 22.4 µM; in [5], > 100 µM. The concentration for total growth inhibition (TGI) is 35.2 µM in [6], > 100 µM in [7], > 100 µM in assay [8] and > 100 µM in assay [9].
Take `CC(=O)Nc1ccc2cc(C)c(=O)[nH]c2n1`: the TGI in assay [11], in assay [10], in [1], in assay [3], in [4] and in [5] was > 100 µM each time. For the same compound, the TGI in assay [6], in assay [7], in assay [8] and in assay [9] was > 100 µM each time.
